Experimental findings from patent publication US7521199B2, “Assay to identify estrogen receptor dependent ligands that regulate the hepatic lipase promoter” (Wyeth, priority 2000, dated 2009) are described below.

Read-outs that look alike come from different tables or passages of the source.

This assay deals with human hepatic lipase (HL) promoter (−1557 to +43) regulated through human estrogen receptor. Put plainly: Hepatic lipase promoter luciferase reporter assay in HepG2 cells cotransfected with human estrogen receptor and C/EBPα. In kind it is cell-based. The note with it: for Efficacy (%), Hepatic Lipase Inhibition: relative to 100% effect of 17β-estradiol inhibition of HL activity. The procedure: Cell media was replaced every 2-3 days. Confluent cells were rinsed once with phosphate-buffered saline and 5 mL of a prewarmed solution comprised of about 0.05% trypsin, by volume, and about 0.5 mM ethylenediamine tetraacetic acid was added. Cells were left at room temperature for 5 minutes and cells were then dislodged from the flask by tapping the flask 50 times. Trypsinization was halted by the addition of about 8.5 mL of growth cell culture media. Cells were transferred to a test tube and centrifuged at about 300×g for about 5 minutes. Total cells were counted and resuspended at a concentration of about 1×10^7 cells/200 μL of growth cell culture media.
The mixture was transferred to a 0.2 mL BTX disposable cuvette (P/N 620). Cells were electroporated using a BTX ECM 600 (San Diego, Calif.), at 100 V, […] and 72 Ω. Cells were left a room temperature for about 20 minutes. Approximately 20.5 mL of growth cell culture media was added to the cells. Cells were then seeded at about 200 μL per well of a 96 well plate. Cells were then incubated at about 37° C. for 4 hours.
Media was aspirated and replaced with 200 μL deficient media, which was comprised of Phenol Red Free-DMEM (Gibco BRL) supplemented with 1%, by volume, glutamax; 1%, by volume, penicillin/strepomycin; 1%, by volume, non-essential amino acids; and 10%, by volume, heat inactivated, and charcoal-stripped fetal bovine serum, containing varying concentrations of estrogen test compounds. […]
After estrogen treatment, cells were washed with phosphate-buffered saline and lysed with Cell Culture Lysis Reagent (Promega; Madison, Wis.), 50 μL/well, by shaking the plate at room temperature for about 20 minutes. From each well, 35 μL of cell lysate was transferred to a 96 lumat plate. Luciferase activity was determined by addition of 100 μL luciferase substrate and emitted light was detected with a Dentate Microfluor WHT FB using the Luciferase Assay System (Promega; Madison, Wis.). β-galactosidase activity was determined by adding 10 μL of cell lysate and 100 μL β-galactosidase light emission buffer (Tropix; Bedford Mass.) to a lumat plate. β-galactosidase activity was determined with a Microlumat LB 96P (EG&G Berthold). Emitted light, for each assay, was detected for 10 seconds.
Data were collected and analyzed with the JMP statistical program. Background RLU values were subtracted from both the luciferase and β-gal values. The data were normalized by division of the corrected luciferase values by the corrected β-gal values. […] Mean and standard deviations were determined from at least two separate experiments with an n=4 for each experiment.
Luciferase activity was determined in cell lysates.

The mark [1] stands for this setting: transfected HepG2 cells, 16-24 hours treatment.
[2] abbreviates: transfected HepG2 cells, 16-24 hours treatment, luciferase normalized to β-gal, read-out: IC50 (nM), Hepatic Lipase Inhibition.

`C[C@]12CC[C@H]3C(=CCc4cc(O)ccc43)[C@@H]1CC[C@H]2O` [17α-dihydroequilin]: the “Efficacy (%), Hepatic Lipase Inhibition” value under setting [1] came to 89%. Moreover, under setting [2], the IC50 amounted to 164 nM.

On to `C[C@]12CC[C@@H]3c4ccc(O)cc4CC[C@H]3[C@@H]1CC[C@H]2O` [17α-estradiol], for which the “Efficacy (%), Hepatic Lipase Inhibition” value under setting [1] is given as 69%. Further, under setting [2], the IC50 came to 457 nM.

`C[C@]12CC[C@H]3C(=CCc4cc(O)ccc43)[C@@H]1CC[C@@H]2O` [17β-dihydroequilin]: the “Efficacy (%), Hepatic Lipase Inhibition” value under setting [1] is 149%. Also, the IC50 under setting [2] was 469 nM.

As to `C[C@]12CC[C@@H]3c4ccc(O)cc4CC[C@H]3[C@@H]1CC[C@@H]2O` [17β-estradiol], the “Efficacy (%), Hepatic Lipase Inhibition” value under setting [1] is 100%. Under setting [2], the IC50 worked out at 88 nM.

As for `C[C@]12CCC3=C(CCc4cc(O)ccc43)[C@@H]1CC[C@@H]2O` [17β-Δ8,9-dehydroestradiol], the “Efficacy (%), Hepatic Lipase Inhibition” value under setting [1] is listed as 88%. Besides, the IC50 under setting [2] is 12 nM.

Consider `C[C@]12CCc3c(ccc4cc(O)ccc34)[C@@H]1CCC2=O` [equilenin], for which, under “Homo sapiens, HepG2, read-out: IC50 (nM), Hepatic Lipase Inhibition”, the IC50 worked out at 38 nM. Besides, the “Efficacy (%), Hepatic Lipase Inhibition” value under setting [1] is reported as 82%.

In the case of `C[C@]12CCC3=C(CCc4cc(O)ccc43)[C@@H]1CCC2=O` [Δ8,9-dehydroestrone], the “Efficacy (%), Hepatic Lipase Inhibition” value under setting [1] came to 93%. Also, under setting [2], the IC50 stood at 10 nM.
